Data reported in ChEMBL document CHEMBL5661982 (Mol Cancer Ther, 2012).
Active and inactive are the calls of the source. No cut-off for these calls is given here.

Assays:
GTL 16 cell line [1] = assay: animal or person; conditions: Mus musculus, GTL 16, po, 384 h, read-out: TGI
Description: Antitumor activity against human GTL 16 cells xenografted in athymic nu/nu mouse assessed as tumor growth inhibition at 30 mg/kg, po administered for 16 days relative to control

GTL 16 [2] = conditions: Homo sapiens, dose 0.3-10 mg/kg, route po, time 4.0 day
COLO 205 = assay: Antitumor activity against human COLO 205 cells xenografted in athymic nu/nu mouse assessed as tumor growth inhibition at 40 mg/kg/day, po for 18 days relative to control; conditions: COLO 205, po, 432 h, read-out: TGI
NCI-H1993 = assay: Antiproliferative activity against human NCI-H1993 cells over expressing c-Met assessed as reduction in cell viability after 48 to 72 hrs by MTT assay
U-87 MG [3] = assay: Antitumor activity against human U-87 MG cells xenografted in athymic nu/nu mouse assessed as tumor growth inhibition at 10 mg/kg, po for 9 days relative to control; conditions: 216 h, read-out: TGI
HT-29 [4] = conditions: Homo sapiens, dose 50.0 mg/kg/day, route po, time 21.0 day
HT-29 [5] = conditions: Homo sapiens, dose 50.0 mg/kg/day, route po, time 21.0 day; remark: listed apart in the source
U-87MG ATCC [6] = conditions: Homo sapiens, dose 5-50 mg/kg, route po, time 3.0 day
U-87MG ATCC [7] = conditions: Homo sapiens, dose 5-50 mg/kg, route po, time 3.0 day; remark: listed apart in the source
HCT-116 = assay: Antiproliferative activity against human HCT-116 cells over expressing c-Met assessed as reduction in cell viability after 48 to 72 hrs by MTT assay
[8] = target: Hepatocyte growth factor receptor (Canis lupus familiaris, UniProt Q75ZY9); assay: Inhibition of c-Met phosphorylation in HGF-stimulated dog MDCK cells incubated for 1 hr by sandwich ELISA analysis
SLC34A2-ROS1 = SLC34A2-ROS1 (Homo sapiens, UniProt P08922); assay: Inhibition of SLC34A2-Ros phosphorylation in human HCC87 cells incubated for 1 hr by sandwich ELISA analysis
U-87MG ATCC [9] = conditions: Homo sapiens, dose 5-50 mg/kg, route po, time 3.0 day; remark: listed apart in the source
U-87 MG [10] = conditions: Homo sapiens; U-87MG ATCC; dose 5-50 mg/kg, route po, time 3.0 day
[11] = target: Hepatocyte growth factor receptor (Mus musculus, UniProt P16056); assay: Inhibition of c-Met phosphorylation in HGF-stimulated mIMCD3 cells incubated for 1 hr by sandwich ELISA analysis
GTL 16 cell line [12] = assay: Antitumor activity against human GTL 16 cells xenografted in athymic nu/nu mouse assessed as tumor growth inhibition at 3 mg/kg, po administered for 16 days relative to control; conditions: GTL 16, po, 384 h, read-out: TGI
U-87 MG [13] = assay: Antitumor activity against human U-87 MG cells xenografted in athymic nu/nu mouse assessed as tumor growth inhibition at 1 mg/kg, po for 9 days relative to control; conditions: 216 h, read-out: TGI
U-87 MG [14] = assay: Antitumor activity against human U-87 MG cells xenografted in athymic nu/nu mouse assessed as tumor growth inhibition at 3 mg/kg, po for 9 days relative to control; conditions: 216 h, read-out: TGI
[15] = Inhibition of c-Met T11010I mutant phosphorylation in human HOP-92 cells assessed as reduction in HGF-stimulated c-Met phosphorylation incubated for 1 hr by ELISA analysis; conditions: HOP-92, 1 h
HT-29 [16] = assay: Inhibition of cell invasion in HGF-stimulated human HT-29 cells over expressing c-Met incubated for 48 hrs by Matrigel based analysis; conditions: HT-29, 48 h
HT-29 [17] = assay: Antitumor activity against human HT-29 cells xenografted in athymic nu/nu mouse assessed as tumor growth inhibition at 50 mg/kg/day, po for 21 days relative to control; conditions: HT-29, po, 504 h, read-out: TGI
GTL 16 [18] = conditions: Homo sapiens, dose 0.3-10 mg/kg, route po, time 4.0 day; remark: listed apart in the source
MDA-MB-231 = assay: Antiproliferative activity against human MDA-MB-231 cells over expressing c-Met assessed as reduction in cell viability after 48 to 72 hrs by MTT assay
GTL 16 cell line [19] = assay: Antiproliferative activity against human GTL 16 cells over expressing c-Met assessed as reduction in cell viability after 48 to 72 hrs by MTT assay
[20] = target: Insulin-like growth factor 1 receptor (Mus musculus, UniProt Q60751); assay: Inhibition of IGF1R expressed in mouse NIH3T3 cells assessed as reduction in IGF-stimulated IGF1R phosphorylation incubated for 1 hr by sandwich ELISA analysis
[21] = Inhibition of c-Met R988C mutant phosphorylation in human NCI-H69 cells assessed as reduction in HGF-stimulated c-Met phosphorylation incubated for 1 hr by ELISA analysis; conditions: NCI-H69, 1 h
GTL 16 cell line [22] = assay: Antitumor activity against human GTL 16 cells xenografted in athymic nu/nu mouse assessed as tumor growth inhibition at 1 mg/kg, po administered for 16 days relative to control; conditions: GTL 16, po, 384 h, read-out: TGI
GTL 16 cell line [23] = assay: Antitumor activity against human GTL 16 cells xenografted in athymic nu/nu mouse assessed as tumor growth inhibition at 15 mg/kg, sc minipump administered for 14 days relative to control; conditions: GTL 16, 336 h, read-out: TGI
U-87MG ATCC [24] = conditions: Homo sapiens, dose 5-50 mg/kg, route po, time 3.0 day; remark: listed apart in the source
GTL 16 [25] = conditions: Homo sapiens, dose 1-30 mg/kg, route po
Insulin receptor = Insulin receptor (Homo sapiens, UniProt P06213); assay: Inhibition of Insulin receptor expressed in HEK293 cells assessed as reduction insulin-stimulated INSR phosphorylation incubated for 1 hr by sandwich ELISA analysis
HT-29 [26] = conditions: Homo sapiens, dose 50.0 mg/kg/day, route po, time 21.0 day; remark: listed apart in the source
A549 = assay: Antiproliferative activity against human A549 cells over expressing c-Met assessed as reduction in cell viability after 48 to 72 hrs by MTT assay
HCC1143 = assay: Antiproliferative activity against human HCC1143 cells over expressing c-Met assessed as reduction in cell viability after 48 to 72 hrs by MTT assay

Hepatocyte growth factor receptor (Mus musculus, UniProt P16056), sequence (P16056 whole entry): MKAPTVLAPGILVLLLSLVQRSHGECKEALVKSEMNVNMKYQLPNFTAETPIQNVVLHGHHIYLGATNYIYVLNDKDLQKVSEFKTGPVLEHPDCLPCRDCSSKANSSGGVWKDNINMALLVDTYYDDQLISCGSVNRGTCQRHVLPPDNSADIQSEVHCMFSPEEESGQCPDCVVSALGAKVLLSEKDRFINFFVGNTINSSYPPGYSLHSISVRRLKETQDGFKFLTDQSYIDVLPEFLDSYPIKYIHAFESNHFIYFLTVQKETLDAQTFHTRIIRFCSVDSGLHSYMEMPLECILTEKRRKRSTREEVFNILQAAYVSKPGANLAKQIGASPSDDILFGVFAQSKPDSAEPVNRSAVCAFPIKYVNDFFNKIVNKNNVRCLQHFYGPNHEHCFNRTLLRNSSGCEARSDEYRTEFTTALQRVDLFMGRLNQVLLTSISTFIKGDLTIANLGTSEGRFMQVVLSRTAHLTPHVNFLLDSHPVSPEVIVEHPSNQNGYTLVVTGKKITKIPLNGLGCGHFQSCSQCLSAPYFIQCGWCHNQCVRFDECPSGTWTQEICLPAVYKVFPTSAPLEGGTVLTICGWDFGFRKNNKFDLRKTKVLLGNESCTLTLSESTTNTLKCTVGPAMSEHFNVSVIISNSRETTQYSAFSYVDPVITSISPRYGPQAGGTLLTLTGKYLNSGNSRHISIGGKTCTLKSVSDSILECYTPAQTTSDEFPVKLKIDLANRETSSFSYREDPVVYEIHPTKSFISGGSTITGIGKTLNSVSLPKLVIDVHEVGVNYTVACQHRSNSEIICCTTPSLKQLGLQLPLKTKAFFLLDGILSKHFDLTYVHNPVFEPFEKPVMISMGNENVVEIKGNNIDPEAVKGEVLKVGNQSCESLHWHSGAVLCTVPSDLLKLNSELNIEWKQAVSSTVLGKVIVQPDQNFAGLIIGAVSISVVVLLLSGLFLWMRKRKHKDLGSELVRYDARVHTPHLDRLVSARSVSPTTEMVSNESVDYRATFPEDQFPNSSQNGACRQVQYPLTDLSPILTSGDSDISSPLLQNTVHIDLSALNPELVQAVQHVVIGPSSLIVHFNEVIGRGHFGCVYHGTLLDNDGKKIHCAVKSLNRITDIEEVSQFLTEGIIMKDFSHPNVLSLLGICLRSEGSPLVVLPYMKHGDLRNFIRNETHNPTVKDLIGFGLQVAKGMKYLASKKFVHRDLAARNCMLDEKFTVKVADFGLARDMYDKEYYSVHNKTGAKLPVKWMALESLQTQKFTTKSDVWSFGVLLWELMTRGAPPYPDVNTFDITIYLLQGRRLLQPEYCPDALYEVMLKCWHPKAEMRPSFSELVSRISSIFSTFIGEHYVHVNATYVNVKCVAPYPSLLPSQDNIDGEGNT
Insulin receptor, sequence (P06213 28-758 limits assumed): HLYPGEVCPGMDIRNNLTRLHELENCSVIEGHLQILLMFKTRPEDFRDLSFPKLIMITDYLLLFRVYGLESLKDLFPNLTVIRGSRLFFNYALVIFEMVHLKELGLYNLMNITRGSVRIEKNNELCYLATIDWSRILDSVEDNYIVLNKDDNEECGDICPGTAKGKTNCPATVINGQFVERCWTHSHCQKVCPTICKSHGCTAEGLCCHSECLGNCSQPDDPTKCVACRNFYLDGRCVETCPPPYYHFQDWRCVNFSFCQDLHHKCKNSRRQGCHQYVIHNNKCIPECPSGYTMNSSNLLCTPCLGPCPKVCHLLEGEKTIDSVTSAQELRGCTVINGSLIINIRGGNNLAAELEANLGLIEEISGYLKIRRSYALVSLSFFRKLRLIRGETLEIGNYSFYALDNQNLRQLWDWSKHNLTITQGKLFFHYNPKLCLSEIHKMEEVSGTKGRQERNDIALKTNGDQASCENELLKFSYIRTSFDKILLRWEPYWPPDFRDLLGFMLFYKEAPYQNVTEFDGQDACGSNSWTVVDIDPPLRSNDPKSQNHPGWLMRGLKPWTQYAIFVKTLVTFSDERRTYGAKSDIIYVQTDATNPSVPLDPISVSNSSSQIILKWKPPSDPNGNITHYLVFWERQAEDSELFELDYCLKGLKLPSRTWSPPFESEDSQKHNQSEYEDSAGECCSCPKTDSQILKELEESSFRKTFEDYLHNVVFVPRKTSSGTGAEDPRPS
Insulin receptor, sequence (P06213 763-1382 limits assumed): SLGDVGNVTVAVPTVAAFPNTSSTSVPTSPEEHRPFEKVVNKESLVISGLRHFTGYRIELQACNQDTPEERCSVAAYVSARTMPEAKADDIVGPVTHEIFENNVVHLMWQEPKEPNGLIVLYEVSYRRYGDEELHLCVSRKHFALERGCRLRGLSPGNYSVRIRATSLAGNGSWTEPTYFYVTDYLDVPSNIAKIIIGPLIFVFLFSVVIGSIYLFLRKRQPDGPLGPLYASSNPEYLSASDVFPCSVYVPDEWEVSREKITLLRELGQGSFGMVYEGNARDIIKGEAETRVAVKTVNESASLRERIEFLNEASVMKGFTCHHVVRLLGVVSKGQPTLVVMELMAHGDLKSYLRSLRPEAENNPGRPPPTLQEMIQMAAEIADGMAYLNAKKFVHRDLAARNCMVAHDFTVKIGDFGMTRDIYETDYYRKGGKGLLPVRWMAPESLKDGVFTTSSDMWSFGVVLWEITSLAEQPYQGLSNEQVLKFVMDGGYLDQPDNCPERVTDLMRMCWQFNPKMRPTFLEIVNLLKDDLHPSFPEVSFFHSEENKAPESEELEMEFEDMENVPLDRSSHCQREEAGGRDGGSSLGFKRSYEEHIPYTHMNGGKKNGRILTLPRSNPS
Hepatocyte growth factor receptor (Canis lupus familiaris, UniProt Q75ZY9), sequence (Q75ZY9 whole entry): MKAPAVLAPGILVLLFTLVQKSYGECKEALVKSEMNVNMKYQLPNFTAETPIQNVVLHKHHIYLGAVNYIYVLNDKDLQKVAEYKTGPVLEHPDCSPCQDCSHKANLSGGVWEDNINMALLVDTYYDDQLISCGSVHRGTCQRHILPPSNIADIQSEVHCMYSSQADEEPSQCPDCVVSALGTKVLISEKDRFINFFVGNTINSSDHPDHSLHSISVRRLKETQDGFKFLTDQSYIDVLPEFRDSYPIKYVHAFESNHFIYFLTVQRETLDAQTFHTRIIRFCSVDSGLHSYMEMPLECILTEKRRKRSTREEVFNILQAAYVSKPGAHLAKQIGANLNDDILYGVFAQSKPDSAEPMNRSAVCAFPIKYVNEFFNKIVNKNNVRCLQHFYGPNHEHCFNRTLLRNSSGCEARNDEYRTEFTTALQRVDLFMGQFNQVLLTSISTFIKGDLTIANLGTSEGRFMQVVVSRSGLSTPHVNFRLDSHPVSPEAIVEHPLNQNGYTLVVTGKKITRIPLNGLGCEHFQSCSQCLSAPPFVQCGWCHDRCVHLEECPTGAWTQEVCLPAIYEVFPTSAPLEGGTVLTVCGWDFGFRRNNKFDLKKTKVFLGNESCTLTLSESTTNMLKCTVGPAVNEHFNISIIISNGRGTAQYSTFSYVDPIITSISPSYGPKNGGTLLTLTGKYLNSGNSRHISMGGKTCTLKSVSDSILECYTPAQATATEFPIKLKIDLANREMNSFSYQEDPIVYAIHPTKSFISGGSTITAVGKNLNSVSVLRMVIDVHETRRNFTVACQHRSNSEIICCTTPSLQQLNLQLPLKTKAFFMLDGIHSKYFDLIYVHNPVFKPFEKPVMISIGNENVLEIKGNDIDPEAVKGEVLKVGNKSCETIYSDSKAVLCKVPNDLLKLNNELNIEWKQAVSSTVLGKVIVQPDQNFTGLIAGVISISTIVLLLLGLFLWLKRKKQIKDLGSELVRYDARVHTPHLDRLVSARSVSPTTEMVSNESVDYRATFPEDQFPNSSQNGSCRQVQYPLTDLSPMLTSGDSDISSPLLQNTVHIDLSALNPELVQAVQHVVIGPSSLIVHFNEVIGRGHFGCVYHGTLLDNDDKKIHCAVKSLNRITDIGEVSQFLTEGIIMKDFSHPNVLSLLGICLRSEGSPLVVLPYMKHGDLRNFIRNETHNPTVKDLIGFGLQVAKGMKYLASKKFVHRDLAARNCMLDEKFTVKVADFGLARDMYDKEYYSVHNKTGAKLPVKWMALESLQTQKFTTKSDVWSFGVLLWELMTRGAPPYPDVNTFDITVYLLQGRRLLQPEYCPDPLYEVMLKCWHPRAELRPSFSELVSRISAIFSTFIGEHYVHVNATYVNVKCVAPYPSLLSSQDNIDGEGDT

OCCn1cc(-c2cnc3nnn(Cc4ccc5ncccc5c4)c3n2)cn1 [PF-04217903]
inhibition in vivo at 30 mg/kg (GTL 16 cell line [1]): 100%
inhibition (GTL 16 [2]): Dose-Dependent Effect
inhibition in vivo at 40 mg/kg/day (COLO 205): 44%
IC50 (NCI-H1993): 30 nM
inhibition in vivo at 10 mg/kg (U-87 MG [3]): 68%
inhibition (HT-29 [4]): Active
inhibition (HT-29 [5]): Active
inhibition (U-87MG ATCC [6]): inactive
inhibition (U-87MG ATCC [7]): Active
IC50 (HCT-116): > 10000 nM
IC50 [8]: 9.5 nM
IC50 (SLC34A2-ROS1): > 10000 nM
inhibition (U-87MG ATCC [9]): Active
inhibition (U-87 MG [10]): Active
IC50 [11]: 6.9 nM
inhibition in vivo at 3 mg/kg (GTL 16 cell line [12]): 74%
inhibition in vivo at 1 mg/kg (U-87 MG [13]): 30%
inhibition in vivo at 3 mg/kg (U-87 MG [14]): 48%
IC50 [15]: 6.7 nM
IC50 (HT-29 [16]): 7 nM
inhibition in vivo at 50 mg/kg/day (HT-29 [17]): 40%
inhibition (GTL 16 [18]): Dose-Dependent Effect
IC50 (MDA-MB-231): > 10000 nM
IC50 (GTL 16 cell line [19]): 12 nM
IC50 [20]: > 10000 nM
IC50 [21]: 6.4 nM
inhibition in vivo at 1 mg/kg (GTL 16 cell line [22]): 64%
inhibition in vivo at 15 mg/kg (GTL 16 cell line [23]): 93%
inhibition (U-87MG ATCC [24]): Active
inhibition (GTL 16 [25]): Active
IC50 (Insulin receptor): > 10000 nM
inhibition (HT-29 [26]): inactive
IC50 (A549): > 10000 nM
IC50 (HCC1143): > 10000 nM
